For experiment [1], the system named is human ES cell-derived neural progenitor cells. Briefly: Quantitative PCR transcriptional profile after differentiation with retinoic acid.
Experiment [2] deals with human ES cell-derived FOXA2 expressing neural progenitor cells. Briefly: Immunocytochemistry and cell counts of FOXA2 expressing DA neurons at DIV49. The experiment is classed as cell-based. The protocol:
Media were changed every 2 days.
Neural progenitor cells were differentiated toward the DA neuron phenotype with mouse sonic hedgehog (Shh-N), human activated sonic hedgehog (C24II SHH-N), mouse fibroblast growth factor 8b (FGF8b), human FGF8A (all from R&D Systems, Inc.), 20 ng/ml brain derived neurotrophic factor (BDNF) (PeproTech EC Ltd), 1 ng/ml transforming growth factor type β3 (TGF-β3) (Calbiochem, San Diego, Calif.), 10 ng/ml glial cell line-derived neurotrophic factor (GDNF), 0.5 mM dibutyryl cAMP, and 0.2 mM ascorbic acid (AA) (all from Sigma-Aldrich). After 21 days (Day 35) cells were passaged using Tryple (Invitrogen Corporation) and spun at 1,000 rpm for 5 minutes. Cells were resuspended in N2 medium and plated again at a density of approximately 1,000,000-2,000,000 cells per well (24 well plate) on polyornithine/laminin-coated dishes in the presence of BDNF, AA, SHH, and FGF8. After an additional 7 days of culture (DIV42), cells were differentiated until Day 49 without SHH and FGF8 but in the presence of BDNF, AA, cAMP, GDNF, and TGF-β3.
Cells were fixed in 4% paraformaldehyde and analyzed by indirect immunofluorescence (Sonntag et al., 2005). Fluorescent signals were examined using an LSM510 Meta confocal microscope equipped with ultraviolet, argon, and helium-neon lasers (Carl Zeiss, Thornwood, N.Y.). […]
Quantitative analysis of immunocytochemistry was performed on randomly selected confocal fields from at least two independent differentiation experiments. In each field, images of separate channels (Hoechst, 488, 568, 594) were acquired at 40× magnification on an integrated confocal microscope (LSM510/Meta, Carl Zeiss) and stereology workstation (StereoInvestigator, MBF Bioscience, Inc., Williston, Vt.), where images of cells in independent channels and merged images were counted.

Turning to `CC1=C(/C=C/C(C)=C/C=C/C(C)=C/C(=O)O)C(C)(C)CCC1` [RA, all-trans retinoic acid], the “OTX2, PAX2 and HOXB1 levels” value in experiment [1] (10^-6 M and 10^-7 M RA, 22 days of differentiation, relative to conditions without RA) was “reduced OTX2 and PAX2 levels and increased HOXB1 levels”. For the same molecule, the “increase of expression levels of the midbrain transcription factor EN1” value in experiment [1] (10^-8 M RA, 22 days of differentiation, relative to conditions without RA) is “more than 2000 fold”. In addition, in experiment [1] (all RA conditions tested (0, 10^-6 to 10^-9 M)), the “expression levels of the ventral neural transcription factor FOXA2” value is “consistently low”.

B1: WNT1: secreted signaling protein encoded by the human WNT1 proto-oncogene; recombinant (protein, UniProt P04628 28-370, looked up)
Proto-oncogene Wnt-1: ANSSGRWWGIVNVASSTNLLTDSKSLQLVLEPSLQLLSRKQRRLIRQNPGILHSVSGGLQSAVRECKWQFRNRRWNCPTAPGPHLFGKIVNRGCRETAFIFAITSAGVTHSVARSCSEGSIESCTCDYRRRGPGGPDWHWGGCSDNIDFGRLFGREFVDSGEKGRDLRFLMNLHNNEAGRTTVFSEMRQECKCHGMSGSCTVRTCWMRLPTLRAVGDVLRDRFDGASRVLYGNRGSNRASRAELLRLEPEDPAHKPPSPHDLVYFEKSPNFCTYSGRLGTAGTAGRACNSSSPALDGCELLCCGRGHRTRTQRVTERCNCTFHWCCHVSCRNCTHTRVLHECL
As for B1, the “cells coexpressing FOXA2, TH and β-tubulin” value in experiment [2] (DIV49, cultures grown without WNT1 during first 14 days) is “did not contain cells that coexpressed FOXA2, TH, and β-tubulin”.

B2: Noggin: recombinant Noggin protein (R&D Systems) (protein, UniProt Q13253 28-232, looked up)
Noggin: QHYLHIRPAPSDNLPLVDLIEHPDPIFDPKEKDLNETLLRSLLGGHYDPGFMATSPPEDRPGGGGGAAGGAEDLAELDQLLRQRPSGAMPSEIKGLEFSEGLAQGKKQRLSKKLRRKLQMWLWSQTFCPVLYAWNDLGSRFWPRYVKVGSCFSKRSCSVPEGMVCKPSKSVHLTVLRWRCQRRGGQRCGWIPIQYPIISECKCSC
As to B2, the “cells coexpressing FOXA2, TH and β-tubulin” value was “did not contain cells that coexpressed FOXA2, TH, and β-tubulin” in experiment [2] (DIV49, cultures grown with Noggin alone during first 14 days); “contained cells that coexpressed FOXA2, TH and β-tubulin” in experiment [2] (DIV49, cultures grown with or without Noggin during first 14 days (with WNT1)).

These data come from patent publication US9968637B2, “Dopaminergic neurons differentiated from pluripotent stem cells and uses thereof” (THE MCLEAN HOSPITAL CORPORATION, priority 2010, dated 2018).
